Tests used:
ICR mice = assay: Triglyceride (TG) in blood plasma increase-inhibiting action due to lipid administration; assay type: in vivo; details: Mus musculus; male ICR mice, 5 mg/kg oral, lipid (Intralipos 20%) after 30 minutes, plasma TG 2 hours after lipid; read-out: Inhibiting rate of TG-increase in blood plasma (5 mg/kg)
Protocol: 6 to 9 weeks-old male ICR mice were fasted overnight, and Test compound suspended in 0.2% carboxymethyl cellulose solution was orally administered to the mice. A lipid (Intralipos 20%, OTSUKA PHARMACEUTICAL CO., LTD., 10 mL/kg) was orally administered after 30 minutes. Blood was collected from tail vein immediately before the lipid administration, and after 2 hours from the same to obtain blood plasma. Measurement of TG in blood plasma was carried out by using a triglyceride E Test Wako (Wako Pure Chemical Industries, Ltd.), and an increased value of TG in blood plasma by administration of the lipid was calculated. An increased value of TG in blood plasma in a solvent control group was used as a control, and an inhibiting rate in increase of TG in blood plasma in the Test compound administered group was calculated.

C57BL/6J mice = assay: Antifeeding activity (high fat diet intake up to 4 hours); assay type: in vivo; details: Mus musculus, male C57BL/6J mice, 5 mg/kg oral, food ingested up to 4 hours, read-out: Antifeeding rate (5 mg/kg)
Protocol: 7 to 10 weeks-old male C57BL/6J mice were fasted overnight, and the test compound suspended in 0.2% carboxymethylcellulose solution was orally administered. Immediately after the administration, high fat diet (Oriental Yeast Co., Ltd, 60 cal % fat) was provided and freely fed. An amount of food ingested up to 4 hours was measured, and a lowering rate (an antifeeding rate) of the amount of food ingested in the Test compound administered group was calculated as compared to that of the solvent control group as a control.

Row | SMILES | inhibition in vivo at 5 mg/kg (ICR mice) [%] | inhibition in vivo at 5 mg/kg (C57BL/6J mice) [%]
1 | CC(C)(COc1cnc(-c2ccc(-c3ncc(C(F)(F)F)[nH]3)c(F)c2)cn1)C(=O)O [Example 91] | 51 | 51
2 | CC(C)(COc1ccc(-c2ccc(-c3nc(C(F)(F)F)c[nH]3)cc2)cc1)C(=O)O [Example 93-3), 3-({4′-[5-(trifluoromethyl)-1H-imidazol-2-yl]biphenyl-4-yl}oxy)-2,2-dimethylpropanoic acid] | 67 | 68
3 | Cc1cc(OCC2(C(=O)O)CCC2)ncc1-c1ccc(-c2ncc(C(F)(F)F)[nH]2)nc1 [Example 97-5), 1-[({4-methyl-6′-[5-(trifluoromethyl)-1H-imidazol-2-yl]-3,3′-bipyridin-6-yl}oxy)methyl]cyclobutanecarboxylic acid] | 102 | 92
4 | Cc1cc(OCC2(C(=O)O)CCC2)ncc1-c1ccc(-c2ncc(C(F)(F)F)[nH]2)c(F)c1 [Example 98-3), 1-{[(5-{3-fluoro-4-[5-(trifluoromethyl)-1H-imidazol-2-yl]phenyl}-4-methylpyridin-2-yl)oxy]methyl}cyclobutanecarboxylic acid] | 105 | 89
5 | Cc1cc(OCC2(C(=O)O)CCC2)ncc1-c1cnc(-c2ncc(C(F)(F)F)[nH]2)c(Cl)c1 [Example 99-6), 1-[({5′-chloro-4-methyl-6′-[5-(trifluoromethyl)-1H-imidazol-2-yl]-3,3′-bipyridin-6-yl}oxy)methyl]cyclobutanecarboxylic acid] | 95 | 85
6 | Cc1cc(OCC2(C(=O)O)CCC2)ncc1-c1ccc(-c2ncc(C(F)(F)F)[nH]2)c(Cl)c1 [Example 101-3), 1-{[(5-{3-chloro-4-[5-(trifluoromethyl)-1H-imidazol-2-yl]phenyl}-4-methylpyridin-2-yl)oxy]methyl}cyclobutanecarboxylic acid] | 71 | 57
7 | Cc1cc(OCC(C)(C)C(=O)O)ncc1-c1ccc(-c2ncc(CC(C)C)[nH]2)cc1 [Example 104] | 67 | 62
8 | Cc1cc(OCC(C)(C)C(=O)O)ncc1-c1ccc(-c2ncc(CC3CC3)[nH]2)cc1 [Example 108] | 52 | 62
9 | Cc1cc(OCC(C)(C)C(=O)O)ncc1-c1ccc(-c2ncc(CC3CC3)[nH]2)c(C)c1 [Example 109] | 50 | 41
10 | Cc1cc(OCC(C)(C)C(=O)O)ncc1-c1ccc(-c2ncc(C(C)(C)C(F)(F)F)[nH]2)c(F)c1 [Example 115] | 50 | 62
11 | Cc1cc(OCC(C)(C)C(=O)O)ncc1-c1ccc(-c2ncc(C(F)(F)C(F)(F)F)[nH]2)nc1 [Example 116] | 82 | 76
12 | Cc1cc(OCC(C)(C)C(=O)O)ncc1-c1ccc(-c2ncc(CC3CC3)[nH]2)nc1 [Example 118] | 64 | 61
13 | Cc1cc(OCC(C)(C)C(=O)O)ncc1-c1ccc(-c2ncc(CC3CC3)[nH]2)c(Cl)c1 [Example 121] | 53 | 57
14 | Cc1cc(OCC(C)(C)C(=O)O)ncc1-c1ccc(-c2ncc(C(F)(F)C(F)(F)F)[nH]2)c(F)c1 [Example 124] | 98 | 75
15 | Cc1cc(OCC2(C(=O)O)CC2)ncc1-c1ccc(-c2ncc(C(F)(F)F)[nH]2)nc1 [Example 132] | 65 | 47
16 | Cc1cc(OCC2(C(=O)O)CC2)ncc1-c1ccc(-c2ncc(C(F)(F)F)[nH]2)c(F)c1 [Example 133] | 75 | 83
17 | CCC(CC)(COc1cc(C)c(-c2ccc(-c3ncc(C(F)(F)F)[nH]3)c(F)c2)cn1)C(=O)O [Example 134] | 84 | 74
18 | Cc1cc(OCC2(C(=O)O)CC2)ncc1-c1cnc(-c2ncc(C(F)(F)F)[nH]2)c(F)c1 [Example 136] | 64 | 62
19 | Cc1cc(OCC2(C(=O)O)CCC2)ncc1-c1cnc(-c2ncc(C(F)(F)F)[nH]2)c(F)c1 [Example 137] | 81 | 83
20 | CCC(CC)(COc1cc(C)c(-c2ccc(-c3ncc(C(F)(F)F)[nH]3)c(Cl)c2)cn1)C(=O)O [Example 140] | 68 | 78

From patent publication US9302996B2, “Continuous arycyclic compound” (MITSUBISHI TANABE PHARMA CORPORATION, priority 2010, dated 2016)
